Laboratory results: PMC4139342, “Pharmacokinetics-Pharmacodynamics Analysis of Bicyclic 4-Nitroimidazole Analogs in a Murine Model of Tuberculosis” (PLoS ONE, 2014)

Test system: H37Rv::F420-mutants, F420 deficient (FbiC mutant)
Type: cell-based, M. tuberculosis

O=[N+]([O-])c1cn2c(n1)OC[C@@H](NCc1ccc(OC(F)(F)F)cc1)C2 [Amino-824, ((s)-2-nitro-6,7-dihydro-5H-imidazo[2,1-b][1,3]oxazin-6-yl)-(4-trifluoromethoxybenzyl)amine]
H37Rv::F420-mutants MIC99: >10 µg/mL

O=[N+]([O-])c1cn2c(n1)OC[C@@H](NCCc1ccc(OC(F)(F)F)cc1)C2 [AminoEthyl-824]
H37Rv::F420-mutants MIC99: >10 µg/mL

O=[N+]([O-])c1cn2c(n1)OC[C@@H](NCc1ccc(OC(F)(F)F)c(Cl)c1)C2 [NI-135]
H37Rv::F420-mutants MIC99: >10 µg/mL

O=[N+]([O-])c1cn2c(n1)OC[C@@H](NCc1ccc(OC(F)(F)F)c(F)c1)C2 [NI-136]
H37Rv::F420-mutants MIC99: >10 µg/mL

CC[C@@H]1Oc2nc([N+](=O)[O-])cn2C[C@@H]1OCc1ccc(OC(F)(F)F)cc1 [NI-145]
H37Rv::F420-mutants MIC99: >10 µg/mL

O=[N+]([O-])c1cn2c(n1)OC[C@@H](NCc1ccc(OC(F)(F)F)c(O)c1)C2 [NI-147]
H37Rv::F420-mutants MIC99: >10 µg/mL

CC[C@@H]1Oc2nc([N+](=O)[O-])cn2C[C@@H]1NCc1ccc(OC(F)(F)F)c(F)c1 [NI-176]
H37Rv::F420-mutants MIC99: >10 µg/mL

CC[C@H]1Oc2nc([N+](=O)[O-])cn2C[C@@H]1NCc1ccc(OC(F)(F)F)cc1 [NI-182]
H37Rv::F420-mutants MIC99: >10 µg/mL

CC[C@@H]1Oc2nc([N+](=O)[O-])cn2C[C@@H]1NCc1ccc(OC(F)(F)F)cc1 [NI-269]
H37Rv::F420-mutants MIC99: >10 µg/mL

CC[C@H]1Oc2nc([N+](=O)[O-])cn2C[C@@H]1NCc1ccc(-c2ccc(OC(F)(F)F)cc2)cc1 [NI-297]
H37Rv::F420-mutants MIC99: >10 µg/mL

O=[N+]([O-])c1cn2c(n1)OC1(CC1)C(OCc1ccc(OC(F)(F)F)cc1)C2 (centres unmarked) [NI-302]
H37Rv::F420-mutants MIC99: >10 µg/mL

O=C(CO[C@@H]1COc2nc([N+](=O)[O-])cn2C1)N1CCN(c2ccc(OC(F)(F)F)cc2)CC1 [NI-622]
H37Rv::F420-mutants MIC99: >10 µg/mL

O=C(CO[C@@H]1COc2nc([N+](=O)[O-])cn2C1)N1CCN(c2ccc(C(F)(F)F)cn2)CC1 [NI-644]
H37Rv::F420-mutants MIC99: >10 µg/mL

O=[N+]([O-])c1cn2c(n1)OC[C@@H](OCc1ccc(OC(F)(F)F)cc1)C2 [PA-824, (6S)-2-nitro-6-{[4-(trifluoromethoxy)benzyl]oxy}-6,7-dihydro-5H-imidazo[2,1-b][1, 3]oxazine, reference compound]
H37Rv::F420-mutants MIC99: >10 µg/mL
